Where no end group is shown, it is not given here. The star is where a group is joined. Carboxymethyl = O=C(O)C*
Columns and labels:
plasmid DNA = experiment: Fluorescent dye (thiazole orange) displacement assay of peptide binding to DNA, Example 1; conditions: corresponding to a charge ratio of 1.8:1
Procedure: Peptide DNA condensates were formed by adding 75 μg of DNA (pCMVL in 750 μl of 5 mM Hepes pH 7.4) to varying amounts of peptide (7.5 to 90 nmol in 750 μl of Hepes) while vortexing, followed by equilibration at RT for 1 h. Peptide binding to DNA was monitored by a fluorescent dye displacement assay (Wadhwa et al. 1997). A 1 μg aliquot of the peptide DNA condensate was diluted to 1 ml in Hepes containing 0.1 μM thiazole orange. The fluorescence of the intercalated dye was measured on an LS50B fluorimeter (Perkin Elmer, UK) in a microcuvette by exciting at 500 nm while monitoring emission at 530 nm.

[1] = Solubility of peptide DNA condensates: particle size as a function of DNA concentration; format: physicochemical; conditions: when increasing DNA concentration from 50 to 500 μg/ml
[2] = QELS particle size and zeta potential of glycopeptide DNA condensates, Example 3; format: physicochemical; conditions: 0.5 nmol of peptide or glycopeptide per μg of DNA; 50 μg/mL DNA in HBM
Procedure: Glycopeptide DNA condensates were formed at a plasmid DNA concentration of 50 μg/mL in HBM (5 mM Hepes 0.27 M mannitol pH 7.4). DNA condensates were formed by combining 750 μL of plasmid DNA (100 μg/mL) with 750 μL of triantennary-CWK18 (50 nmol/mL), Man9-CWK18, or AlkCWK18 while vortexing. The particle size of glycopeptide and peptide DNA condensates were analyzed at a DNA concentration of 50 μg/mL in HBM by quasielastic light scattering (QELS) (Cohen et al., 1990). The particle surface charge was determined at 50 μg/mL in HBM by zeta potential analysis using a Brookhaven ZetaPlus™ (Brookhaven Instruments).

[3] = QELS particle size and zeta potential of PEG-peptide DNA condensates and co-condensates, Example 1; format: physicochemical; conditions: charge ratio of 1.8:1 or higher; 50 μg/ml DNA in Hepes
Procedure: The particle size of peptide DNA condensates were analyzed at a DNA concentration of 50 μg/ml in Hepes by quasielastic light scattering (QELS). The particle surface change was determined by zeta potential analysis using a Brookhaven ZetaPlus™ (Brookhaven Instruments).
DNA co-condensates were prepared by add-mixing AlkCWK18 and PEG-VS-CWK18 in ratios ranging from 0 to 100 mol %, and condensing DNA at a charge ratio of 2.3:1 as described above. To establish the mol ratio of peptides bound to DNA, condensates were dialyzed in a fixed volume (0.5 ml) dialyzer for 75 h against water using a 100,000 MWCO membrane. Peptide DNA condensates in the retentate (0.5 ml) were dissociated by adding 50 μl of 5 M sodium chloride in 0.1% TFA. AlkCWK18 and PEG-VS-CWK18 were quantified by injecting 1 nmol of peptide (100 μl) onto analytical RP-HPLC eluted with 0.1% TFA and a gradient of acetonitrile (5 to 65% over 30 min) while detecting tryptophan by fluorescence (λex 280 nm, λem 350 nm). The peak integration areas were used to quantify AlkCWK18 and PEG-VS-CWK18 with reference to standard curves developed for each peptide.

HepG2 cells = experiment: Nuclear targeted β-galactosidase (X-gal) count of transfected HepG2 cells; format: cell-based; conditions: HepG2, 48 h, NTβGal plasmid
Procedure: (§1) The number of cells transfected in vitro was examined using a plasmid encoding nuclear targeted β-galactosidase followed by X-gal (5-bromo-4-chloro-3-indolyl-β-galactopyranoside) staining. HepG2 and COS 7 cells were transfected for 5 h as described above with either AlkCWK18 DNA, peptide II DNA condensates, or plasmid DNA and then grown in fresh media for an additional 43 h. After removing media, cells were fixed for 5 min in phosphate-buffered saline (PBS, pH 7.3) containing 1.25 vol/vol % glutaraldehyde and then stained by incubation with 0.05 wt/v % X-gal, 1 mM magnesium chloride, 10 mM potassium ferricyanide, and 10 mM potassium ferrocyanide in PBS. After 4 h at 37° C., the X-gal solution was removed and the nuclear stained blue cells were counted with a light microscope under ten power magnification by averaging the number of transfectants from nine fields. Values were analyzed for significance by one-way analysis of variance.

COS 7 cells = experiment: Nuclear targeted β-galactosidase (X-gal) count of transfected COS 7 cells; format: cell-based; conditions: COS 7, 48 h, NTβGal plasmid
Procedure: as §1

peptide:DNA stoichiometry at the asymptote of the dye displacement titration curve (relative DNA binding affinity) (plasmid DNA) | Substance | particle size of DNA condensates [1] | mean particle size of DNA condensates [2] | mean diameter of DNA condensates [3] | more cells transduced (nuclear stained) vs. AlkCWK18 (HepG2 cells) | more cells positively stained vs. AlkCWK18 (COS 7 cells)
0.3 nmol per μg of DNA | Alk-S-Cys-Trp-Lys18 (C(Carboxymethyl)WKKKKKKKKKKKKKKKKKK) [AlkCWK18] | 60 to 400 nm | 81 nm | 60 nm |  | 
 | Cys-Trp-Lys17-Cys (CWKKKKKKKKKKKKKKKKKC) [Peptide II] |  |  |  | approximately 9 fold | 4 fold

— patent publication US6770740B1, “Crosslinked DNA condesate compositions and gene delivery methods” (The Regents of the University of Michigan, priority 1999, dated 2004)
